Laboratory results from patent US9822082B2, “Diaminotriazine derivatives as herbicides” (BASF SE, priority 2014, dated 2017).

Legend:
Assay in all cases: pre-emergence greenhouse herbicidal test
Type in all cases: in vivo
[1] = system: AMARE (Amaranthus retroflexus); conditions: pre-emergence method, scale from 0 to 100
Excerpt: (§1) The seeds of the test plants were sown separately for each species. For the pre-emergence treatment, the active ingredients, which had been suspended or emulsified in water, were applied directly after sowing by means of finely distributing nozzles. The containers were irrigated gently to promote germination and growth and subsequently covered with transparent plastic hoods until the plants had rooted. This cover caused uniform germination of the test plants, unless this had been impaired by the active ingredients. Depending on the species, the plants were kept at 10-25° C. or 20-35° C., respectively. The test period extended over 2 to 4 weeks. During this time, the plants were tended, and their response to the individual treatments was evaluated. Evaluation was carried out using a scale from 0 to 100. 100 means no emergence of the plants, or complete destruction of at least the aerial moieties, and 0 means no damage, or normal course of growth. A moderate herbicidal activity is given at values of at least 60, a good herbicidal activity is given at values of at least 70, and a very good herbicidal activity is given at values of at least 85. The plants used in the greenhouse experiments were of the following species: [table]

SETFA (Setaria faberi) = conditions: pre-emergence method, scale from 0 to 100
Excerpt: as §1

[2] = system: ABUTH (Abutilon theophrasti); conditions: pre-emergence method, application rate 0.500 kg/ha, scale from 0 to 100
Excerpt: as §1

[3] = system: ECHCG (Echinocloa crus-galli); conditions: pre-emergence method, application rate 0.250 kg/ha, scale from 0 to 100
Excerpt: as §1

## COC1(c2nc(N)nc(Nc3c(F)c(F)cc(F)c3F)n2)CCC1 [Example 1, 6-(1-methoxycyclobutyl)-N4-(2,3,5,6-tetrafluorophenyl)-1,3,5-triazine-2,4-diamine]
[1]; application rate 0.500 kg/ha
  herbicidal activity against AMARE: very good herbicidal activity (a very good herbicidal activity is given at values of at least 85)
SETFA (Setaria faberi); application rate 0.500 kg/ha
  herbicidal activity against SETFA: very good herbicidal activity (a very good herbicidal activity is given at values of at least 85)
[2]
  herbicidal activity against ABUTH: very good herbicidal activity (a very good herbicidal activity is given at values of at least 85)

## COC1(c2nc(N)nc(Nc3c(F)c(F)cc(F)c3F)n2)CCCCC1 [Example 3, 6-(1-methoxycyclohexyl)-N2-(2,3,5,6-tetrafluorophenyl)-1,3,5-triazine-2,4-diamine]
[3]
  herbicidal activity against ECHCG: very good herbicidal activity (a very good herbicidal activity is given at values of at least 85)
[1]; application rate 0.250 kg/ha
  herbicidal activity against AMARE: very good herbicidal activity (a very good herbicidal activity is given at values of at least 85)
SETFA (Setaria faberi); application rate 0.250 kg/ha
  herbicidal activity against SETFA: very good herbicidal activity (a very good herbicidal activity is given at values of at least 85)

## COC1(c2nc(N)nc(Nc3c(F)c(F)cc(F)c3F)n2)CCCC1 [Example 2, 6-(1-methoxycyclopentyl)-N2-(2,3,5,6-tetrafluorophenyl)-1,3,5-triazine-2,4-diamine]
[1]; application rate 0.500 kg/ha
  herbicidal activity against AMARE: very good herbicidal activity (a very good herbicidal activity is given at values of at least 85)
SETFA (Setaria faberi); application rate 0.500 kg/ha
  herbicidal activity against SETFA: very good herbicidal activity (a very good herbicidal activity is given at values of at least 85)
[2]
  herbicidal activity against ABUTH: very good herbicidal activity (a very good herbicidal activity is given at values of at least 85)
